Data taken from ChEMBL document CHEMBL5528050, “Discovery of a Novel Series of Homo sapiens Caseinolytic Protease P Agonists for Colorectal Adenocarcinoma Treatment via ATF3-Dependent Integrated Stress Response” (J Med Chem, 2024).
Calls of active or inactive are those of the source. The calls are words filed in the database; no cut-off is given here.

Columns and labels:
[1] = test system: HCT-116; experiment: cells; settings: Homo sapiens, HCT-116, 72 h
Description: Antiproliferative activity against human HCT-116 cells assessed as inhibition of cell growth measured after 72 hrs by CCK-8 method

[2] = molecular target: T1, ATP-dependent Clp protease proteolytic subunit, mitochondrial (Homo sapiens, UniProt Q16740); experiment: Agonist activity at human ClpP expressed in Escherichia coli using AC-WLA-AMC as substrate measured every 5 mins for 1 hr by fluorescence based analysis
T1 sequence (Q16740 whole entry): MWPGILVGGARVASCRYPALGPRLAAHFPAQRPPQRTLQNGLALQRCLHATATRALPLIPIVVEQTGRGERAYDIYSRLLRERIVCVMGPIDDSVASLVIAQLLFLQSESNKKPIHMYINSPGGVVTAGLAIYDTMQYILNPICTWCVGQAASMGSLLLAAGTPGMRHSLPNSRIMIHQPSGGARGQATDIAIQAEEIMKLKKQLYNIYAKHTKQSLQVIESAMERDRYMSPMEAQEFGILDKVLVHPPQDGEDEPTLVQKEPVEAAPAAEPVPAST

[3] = molecular target: T1, ATP-dependent Clp protease proteolytic subunit, mitochondrial; experiment: Binding affinity to human ClpP expressed in Escherichia coli assessed as dissociation constant by ITC method
[4] = Antiproliferative activity against HEK293 cells assessed as inhibition of cell growth measured after 72 hrs by CCK-8 method; format: toxicity, cell-based; settings: human
[5] = Antiproliferative activity against rat H9c2 cells assessed as inhibition of cell growth measured after 72 hrs by CCK-8 method; format: toxicity, cell-based
[6] = Antiproliferative activity against human L02 cells assessed as inhibition of cell growth measured after 72 hrs by CCK-8 method; format: toxicity, cell-based
[7] = Antiproliferative activity against human HCoEpiC cells assessed as inhibition of cell growth measured after 72 hrs by CCK-8 method; format: toxicity, cell-based
[8] = test system: HCT-116; experiment: Induction of ROS generation in human HCT-116 cells assessed as increase in intracellular ROS level measured after 48 hrs DCFH-DA staining based analysis; format: functional, cell-based
[9] = test system: HCT-116; experiment: Inhibition of mitochondrial function in human HCT-116 cells assessed as reduction in ATP production; format: functional, cell-based
[10] = test system: Cell membrane; experiment: Induction of mitochondrial membrane potential loss in human HCT-116 cells assessed as increase in green fluorescence at high dose measured after 48 hrs by JC-1 staining based microscopy analysis; format: cell membranes
[11] = test system: HCT-116; experiment: Antiproliferative activity against human HCT-116 cells assessed reduction in clone formation measured after 48 hrs by crystal violet staining based analysis; format: functional, cell-based
[12] = test system: HCT-116; experiment: Inhibition of cell migration in human HCT-116 cells at 5 to 20 uM measured after 24 to 48 hrs by microscopy based analysis; format: functional; settings: dose 5-20 µM, time 24-48 hrs
[13] = test system: HCT-116; experiment: Induction of apoptosis in human HCT-116 cells measured after 48 hrs by annexin V-FITC/7-AAD based flow cytometry analysis; format: functional, cell-based
[14] = test system: HCT-116; experiment: Induction of apoptosis in human HCT-116 cells assessed as apoptotic rate at low dose measured after 48 hrs by annexin V-FITC/7-AAD based flow cytometry analysis relative to control; format: functional
[15] = test system: HCT-116; experiment: Induction of apoptosis in human HCT-116 cells assessed as apoptotic rate at medium dose measured after 48 hrs by annexin V-FITC/7-AAD based flow cytometry analysis relative to control; format: functional
[16] = test system: HCT-116; experiment: Induction of apoptosis in human HCT-116 cells assessed as cell death at 20 uM measured after 48 hrs by annexin V-FITC/7-AAD based flow cytometry analysis relative to control; format: functional
[17] = test system: HCT-116; experiment: Induction of cell cycle arrest in human HCT-116 cells assessed as effect on number of cells at G1 phase at 5 to 20 uM measured after 48 hrs by PI staining based flow cytometry analysis; format: functional; settings: dose 5-20 µM
[18] = test system: HCT-116; experiment: Induction of cell cycle arrest in human HCT-116 cells assessed as increase in number of cells at G2 phase at 5 uM measured after 48 hrs by PI staining based flow cytometry analysis; format: functional
[19] = test system: HCT-116; experiment: Induction of cell cycle arrest in human HCT-116 cells assessed as increase in number of cells at G2 phase at high dose measured after 48 hrs by PI staining based flow cytometry analysis; format: functional
[20] = test system: HCT-116; experiment: Antiproliferative activity against ClpP knockdown human HCT-116 cells assessed as fold increase in IC50; format: functional
[21] = molecular target: T1, ATP-dependent Clp protease proteolytic subunit, mitochondrial; settings: filed as agonist, dose 100.0 µM, time 30.0 min
[22] = test system: SW-620; experiment: cells; settings: Homo sapiens, SW-620, 72 h
Description: Antiproliferative activity against human SW-620 cells assessed as inhibition of cell growth measured after 72 hrs by CCK-8 method

[23] = test system: HCT-15; experiment: cells; settings: Homo sapiens, HCT-15, 72 h
Description: Antiproliferative activity against human HCT-15 cells assessed as inhibition of cell growth measured after 72 hrs by CCK-8 method

[24] = test system: SW480; experiment: cells; settings: Homo sapiens, SW480, 72 h
Description: Antiproliferative activity against human SW480 cells assessed as inhibition of cell growth measured after 72 hrs by CCK-8 method

[25] = test system: DLD-1; experiment: cells; settings: Homo sapiens, DLD-1, 72 h
Description: Antiproliferative activity against human DLD-1 cells assessed as inhibition of cell growth measured after 72 hrs by CCK-8 method

[26] = Cmax in Sprague-Dawley rat at 5 mg/kg, iv by LC-MS/MS analysis; format: ADME, organism-based; settings: in vivo
[27] = AUC (0 to 12hrs) in Sprague-Dawley rat at 5 mg/kg, iv by LC-MS/MS analysis; format: ADME, organism-based; settings: in vivo
[28] = Half life in Sprague-Dawley rat at 5 mg/kg, iv by LC-MS/MS analysis; settings: in vivo
[29] = Clearance in Sprague-Dawley rat at 5 mg/kg, iv by LC-MS/MS analysis; format: ADME, organism-based; settings: in vivo
[30] = MRT (0 to 12 hrs) in Sprague-Dawley rat at 5 mg/kg, iv by LC-MS/MS analysis; format: ADME, organism-based; settings: in vivo
[31] = Cmax in Sprague-Dawley rat at 15 mg/kg, po by LC-MS/MS analysis; format: ADME, organism-based; settings: in vivo
[32] = Tmax in Sprague-Dawley rat at 15 mg/kg, po by LC-MS/MS analysis; format: ADME, organism-based; settings: in vivo
[33] = AUC (0 to 12hrs) in Sprague-Dawley rat at 15 mg/kg, po by LC-MS/MS analysis; format: ADME, organism-based; settings: in vivo
[34] = Half life in Sprague-Dawley rat at 15 mg/kg, po by LC-MS/MS analysis; settings: in vivo
[35] = MRT (0 to 12hrs) in Sprague-Dawley rat at 15 mg/kg, po by LC-MS/MS analysis; format: ADME, organism-based; settings: in vivo
[36] = Oral bioavailability in Sprague-Dawley rat at 15 mg/kg by LC-MS/MS analysis; format: ADME, organism-based; settings: in vivo
[37] = test system: HCT-116; experiment: Upregulation of slug expression in human HCT-116 cells measured after 48 hrs by Western blot analysis; format: functional, cell-based

Compound: O=C(NCc1ccc(C(F)(F)F)cc1)C1=CCCN(Cc2cc(C(F)(F)F)cc(C(F)(F)F)c2)C1
- IC50 [1]: 25.3 µM

Compound: N#Cc1cccc(CN2CCCC(C(=O)NCc3ccc(Cl)c(Cl)c3)C2)c1 (stereo unspecified)
- IC50 [1]: 25.3 µM

Compound: CC(C)(C)c1ccc(CNC(=O)C2CCCN(Cc3cccc(C#N)c3)C2)cc1 (stereo unspecified)
- IC50 [1]: 40 µM

Compound: O=C(Nc1ccc(Oc2ccccc2)cc1)C1CCCN(C(=O)c2cc(C(F)(F)F)cc(C(F)(F)F)c2)C1 (stereo unspecified)
- IC50 [1]: 40.1 µM

Compound: O=C(NCc1ccc(C(F)(F)F)cc1)C1CCCN(C(=O)c2cc(C(F)(F)F)cc(C(F)(F)F)c2)C1 (stereo unspecified)
- IC50 [1]: 25.1 µM

Compound: O=C(NCc1ccc2c(c1)OCO2)C1CCCN(C(=O)c2cc(C(F)(F)F)cc(C(F)(F)F)c2)C1 (stereo unspecified)
- IC50 [1]: 95.3 µM

Compound: N#Cc1cccc(CN2CCCC(C(=O)NCc3ccc(Cl)cc3Cl)C2)c1 (stereo unspecified)
- IC50 [1]: 40.9 µM

Compound: O=C(Nc1cc(Cl)c(Cl)c(Cl)c1)C1CCCN(C(=O)c2cc(C(F)(F)F)cc(C(F)(F)F)c2)C1 (stereo unspecified)
- IC50 [1]: 16.4 µM

Compound: O=C(Nc1cccc(Cl)c1)C1CCCN(C(=O)c2cc(C(F)(F)F)cc(C(F)(F)F)c2)C1 (stereo unspecified)
- IC50 [1]: 30.5 µM

Compound: O=C(Nc1ccc(Cl)cc1)C1CCCN(C(=O)c2cccc(-c3ccco3)c2)C1 (stereo unspecified)
- IC50 [1]: 76.5 µM

Compound: O=C(Nc1ccncc1)C1CCCN(C(=O)c2cc(C(F)(F)F)cc(C(F)(F)F)c2)C1 (stereo unspecified)
- IC50 [1]: 59.7 µM

Compound: N#Cc1cccc(CN2CCCC(C(=O)NCc3ccc4ccccc4c3)C2)c1 (stereo unspecified)
- IC50 [1]: 48.3 µM

Compound: O=C(NCc1ccc(C(F)(F)F)cc1)C1=CCCN(C(=O)c2cc(C(F)(F)F)cc(C(F)(F)F)c2)C1
- IC50 [1]: 20.5 µM

Compound: O=C(NCCc1ccc(Cl)cc1)C1CCCN(C(=O)c2cc(C(F)(F)F)cc(C(F)(F)F)c2)C1 (stereo unspecified)
- IC50 [1]: 56.5 µM

Compound: N#Cc1cccc(CN2CCCC(C(=O)NCc3ccc(Cl)cc3)C2)c1 (stereo unspecified)
- IC50 [1]: 22.1 µM

Compound: CC(ONC(=O)c1cc(C(F)(F)F)cc(C(F)(F)F)c1)C(=O)Nc1ccc(Cl)cc1 (stereo unspecified)
- EC50 [2]: 0.0105 µM
- Kd [3]: 8.41 µM
- IC50 at 72 h [4]: 55.4 µM
- IC50 at 72 h [5]: 35.5 µM
- IC50 at 72 h [6]: 30.4 µM
- IC50 at 72 h [7]: 61.7 µM
- Activity [8]: Active
- inhibition [9]: Active
- Activity [10]: Active
- Activity [11]: Dose-Dependent Effect
- inhibition [12]: Active
- Activity [13]: Dose-Dependent Effect
- Activity [14]: 15%
- Activity [15]: 22%
- Activity [16]: 40%
- Activity [17]: inactive
- Activity [18]: 20%
- Activity [19]: ~40%
- fold change (FC) [20]: 1.5
- ΔTm [21]: 4 °C
- IC50 [1]: 20.5 µM
- IC50 [22]: 15.5 µM
- IC50 [23]: 37.5 µM
- IC50 [24]: 41.3 µM
- IC50 [25]: 29.8 µM

Compound: O=C(NCc1ccc(C(F)(F)F)cc1)C1=CCCN(Cc2cccc(F)c2)C1
- IC50 [1]: 20.1 µM

Compound: O=C(Nc1ccc(Cl)cc1)C1=CCCN(Cc2ccccc2)C1
- IC50 [1]: 83.5 µM

Compound: N#Cc1cccc(CN2CCCC(C(=O)NCc3ccc4c(c3)OCO4)C2)c1 (stereo unspecified)
- IC50 [1]: 50 µM

Compound: O=C(NCc1ccccc1)C1=CCCN(Cc2ccccc2)C1
- IC50 [1]: 55.4 µM

Compound: O=C(NCc1ccc(C(F)(F)F)cc1)C1=CCCN(Cc2ccc(F)c(F)c2)C1
- IC50 [1]: 25.6 µM

Compound: O=C(Nc1ccc(Cl)c(Cl)c1)C1CCCN(C(=O)c2cc(C(F)(F)F)cc(C(F)(F)F)c2)C1 (stereo unspecified)
- IC50 [1]: 15.7 µM

Compound: O=C(Nc1ccc(Cl)cc1)C1CCCN(C(=O)Cc2cc(Cl)ccc2F)C1 (stereo unspecified)
- IC50 [1]: 67.5 µM

Compound: O=C(CCNC(=O)c1cc(C(F)(F)F)cc(C(F)(F)F)c1)Nc1ccc(Cl)cc1
- IC50 [1]: 64.5 µM

Compound: CC1(C)CCC(NC(=O)C2CCCN(C(=O)c3cc(C(F)(F)F)cc(C(F)(F)F)c3)C2)CC1 (stereo unspecified)
- IC50 [1]: 80.4 µM

Compound: N#Cc1cccc(CN2CCCC(C(=O)NCc3ccc(C(F)(F)F)cc3)C2)c1 (stereo unspecified)
- IC50 [1]: 20.4 µM

Compound: N#Cc1cccc(CN2CCC=C(C(=O)Nc3ccc(Cl)cc3)C2)c1
- IC50 [1]: 2.5 µM

Compound: O=C(Nc1ccc(C(F)(F)F)cc1)C1CCCN(C(=O)c2cc(C(F)(F)F)cc(C(F)(F)F)c2)C1 (stereo unspecified)
- IC50 [1]: 30 µM

Compound: O=C(Nc1ccc(Cl)cc1)C1=CCCN(C(=O)c2cc(C(F)(F)F)cc(C(F)(F)F)c2)C1
- IC50 [1]: 40.3 µM

Compound: O=C(Nc1ccc(Cl)cc1)C1CCCN(C(=O)c2cc(C(F)(F)F)cc(C(F)(F)F)c2)C1 (stereo unspecified)
- IC50 [1]: 16.7 µM

Compound: O=C(Nc1ccc(Cl)cc1)c1cccc(NC(=O)c2cc(C(F)(F)F)cc(C(F)(F)F)c2)c1
- IC50 [1]: 25.3 µM

Compound: N#Cc1cccc(CN2CCCC(C(=O)Nc3ccc(Cl)cc3)C2)c1 (stereo unspecified)
- IC50 [1]: 20.3 µM

Compound: Cc1ccccc1CN1C(=O)C2=C(CCN(Cc3ccccc3)C2)N2CCN=C12 [DORDAVIPRONE]
- Cmax [26]: 2770 ng/mL
- AUC(0-t) [27]: 1960 ng·h/mL
- half-life [28]: 54 min
- clearance [29]: 42.7 mL/min/kg
- MRT last [30]: 54 min
- Cmax [31]: 566 ng/mL
- Tmax [32]: 24 min
- AUC(0-t) [33]: 894 ng·h/mL
- half-life [34]: 66 min
- MRT last [35]: 90 min
- bioavailability [36]: 15.3%

Compound: CC(NC(=O)c1cc(C(F)(F)F)cc(C(F)(F)F)c1)C(=O)Nc1ccc(Cl)cc1 (stereo unspecified)
- IC50 [1]: 58.4 µM

Compound: O=C(NCCNC(=O)c1cc(C(F)(F)F)cc(C(F)(F)F)c1)c1ccc(Cl)cc1
- IC50 [1]: 76.9 µM

Compound: O=C(NCc1ccc(C(F)(F)F)cc1)C1=CCCN(Cc2ccccc2)C1
- Activity [37]: Active
- IC50 [1]: 50.4 µM
